Test [1] has as its system E. coli DRC39 (ΔacrAB::kan). The test is classed as cell-based. Conditions: for MIC: E. coli DRC39 (ΔacrAB::kan), MIC99.
Test [2] deals with E. coli DRC40 (DRC39 ftsZ84). The test is described as follows: MIC / growth and phenotype, broth culture. Format: cell-based.
Test [3] concerns Clostridium perfringens. The test is classed as cell-based.
Test [4] concerns E. coli DRC40/pBR-ftsZ+. The test is classed as cell-based.
For test [5], the system named is E. coli strain DRC39. Nature of the test: combination anti-bacterial treatment at sub-MIC concentrations, cell growth by turbidity or OD600. Format: cell-based. Conditions: for amount of growth relative to absence of compound / growth inhibition: single compound. How it is done:
Cell growth was assessed by visual inspection of cells incubated in culture tubes in this experiment and in the second, third, and fourth experiments described in this Example. In the fifth experiment growth was measured by reading optical density (OD600) using a multiwell plate reader. Cells were inoculated at a low concentration (1-2×10^5 cells/ml), such that the medium appeared clear.

The subject of test [6] is FtsZ ring assembly in E. coli DRC39 cells. Format: cell-based.
Test [7] deals with E. coli MC1000 (wild-type). Nature of the test: MIC, standard broth dilution. The conditions noted are these: MIC99. On the technique in general: Dilution methods test growth across graded concentrations, often in twofold steps.
The test system of test [8] is E. coli DRC42 (DRC39 recA::cat). Nature of the test: MIC, standard broth dilution.
Test [9] has as its system Vibrio cholerae. Nature of the test: MIC, standard broth dilution.
The subject of test [10] is Bacillus subtilis. Nature of the test: MIC / killing, broth culture.
In test [11] the test system is Staphylococcus aureus. Nature of the test: MIC, standard broth dilution.
The target in test [12] is E. coli FtsZ (FtsZEc) GTPase (Escherichia coli, UniProt P0A9A6). Conditions: read-out: IC50 FtsZEc GTPase; 5 min preincubation at 30° C., 1 mM GTP; average of three determinations. How it is done:
FtsZ was preincubated with varying concentrations of compounds or with 3% DMSO in buffer E for 5 min at 30° C., before adding 1 mM GTP to the reactions. Reaction kinetics were followed by measuring inorganic phosphate released upon GTP hydrolysis. The IC50 values were extrapolated from log dose-response curves and are averages from three independent determinations.

The target of test [13] is M. tuberculosis FtzZ (FtsZMt) GTPase (Mycobacterium tuberculosis, UniProt P9WN95). The test is described as follows: malachite green-phosphomolybdate assay of FtsZ GTPase activity. Format: biochemical. Conditions: 5 min preincubation at 30° C., 1 mM GTP; average of three determinations.
Test [14] concerns gram-negative and gram-positive bacteria. The test is described as follows: MIC against a variety of bacteria (FIG. 19). Format: cell-based. As to the method:
FIG. 19 is a table illustrating the minimum inhibitory concentrations of FtsZ GTPase inhibitory compounds identified in vitro. The compounds were tested against a variety of gram-negative and gram-positive bacteria.
The minimum inhibitory concentrations for some of the identified compounds against various bacterial species and strains were evaluated and results are shown herein (see, e.g., FIG. 19 for MIC values of compounds identified using in vitro assays, and see Table 3 for MIC values for compound 26E-10).

[15] abbreviates: C. perfringens, 80 μM, anaerobic conditions.

Converted amounts (≈) assume the structure as drawn. “Also recorded” adds a separate entry of the source.

Sequence of M. tuberculosis FtzZ (FtsZMt) GTPase (P9WN95 whole entry): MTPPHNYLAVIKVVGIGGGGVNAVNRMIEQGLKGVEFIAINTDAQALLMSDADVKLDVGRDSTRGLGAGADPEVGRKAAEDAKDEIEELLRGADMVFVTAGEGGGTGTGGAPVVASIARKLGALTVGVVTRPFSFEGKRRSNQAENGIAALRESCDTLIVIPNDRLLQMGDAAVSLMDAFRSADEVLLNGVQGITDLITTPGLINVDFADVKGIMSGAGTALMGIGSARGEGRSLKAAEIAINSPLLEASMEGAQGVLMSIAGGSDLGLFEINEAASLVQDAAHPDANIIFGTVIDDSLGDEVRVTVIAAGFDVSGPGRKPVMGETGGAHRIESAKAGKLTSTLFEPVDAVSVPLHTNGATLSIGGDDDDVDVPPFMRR
Sequence of E. coli FtsZ (FtsZEc) GTPase (P0A9A6 whole entry): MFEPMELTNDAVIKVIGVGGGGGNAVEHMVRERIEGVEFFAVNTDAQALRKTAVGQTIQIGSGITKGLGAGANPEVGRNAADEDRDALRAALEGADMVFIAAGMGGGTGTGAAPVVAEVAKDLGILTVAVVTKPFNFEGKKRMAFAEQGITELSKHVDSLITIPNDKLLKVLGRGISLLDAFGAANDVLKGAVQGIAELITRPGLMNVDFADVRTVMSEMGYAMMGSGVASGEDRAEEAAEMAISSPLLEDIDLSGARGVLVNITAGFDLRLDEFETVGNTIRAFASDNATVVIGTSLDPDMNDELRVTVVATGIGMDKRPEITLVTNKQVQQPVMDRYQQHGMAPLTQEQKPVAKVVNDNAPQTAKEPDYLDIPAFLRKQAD

As for `CC[n+]1ccc(/C=C/N(C)c2ccccc2)c2ccccc21.[I-]` [26E-10], the “cell morphology and density” value in [1] (DRC39, 5 μM compound, 30° C.) is “mixture of filaments of varying lengths and short cells present at a low density”. Also, the “phenotype at MIC” value in test [1] (E. coli DRC39) and in [2] (E. coli DRC40) was “filaments” in each case. In addition, the minimal inhibitory concentration (MIC) (usually the smallest concentration in the dilution series that meets the test's criterion for growth inhibition) in test [1] was 10 µM; in [2] (E. coli DRC40 (ftsZ84), 30° C., MIC99), 2.5 µM; in test [3] (Clostridium perfringens), greater than 80 µM; in test [4] (DRC40 with wild-type ftsZ in trans (pBR-ftsZ+)), 10 µM; in test [7], greater than 40 µM; in test [8], 10 µM. Besides, the MIC in test [9] was 40 µM; in test [10] (Bacillus subtilis), 40 µM; in [11], 20 µM. Moreover, in [2] (DRC40/pBR322, 5 μM compound, 30° C.), the growth entry is on record as “absolutely no growth”. Moreover, the “effect on cell growth” value in [3] (setting [15]) is on record as “without any overt effect on cell growth”. Moreover, the phenotype entry in [3] (setting [15]) was “filamentation phenotype; also recorded: filaments”. Moreover, the “cell density and filamentation” value in test [4] (DRC40/pBR-ftsZ+, 5 μM compound, versus DRC40/pBR322) is “higher cell density and less pronounced filamentation”. Besides, the “amount of growth relative to absence of compound” value in [5] (5 μM) came out at 41%. In addition, the growth inhibition in test [5] (5 μM) was found to be 59%. Besides, in test [6] (10 μM), the “DNA replication / chromosome segregation (DAPI staining of nucleoids)” value is “does not affect DNA replication or chromosome segregation”. Besides, the “Z-rings in elongated cells” value in [6] (10 μM (MIC), within 60 min) is “markedly reduced in number and diminished in intensity”. Besides, in test [6] (10 μM, after 90 min treatment), the Z-rings entry was “most of the cells were devoid of distinct Z-rings”. Further, in test [6] (10 μM, within 60 min of treatment), the “cell length (filamentation)” value is reported as roughly 4 ×. For the same compound, in test [10], the “killing of B. subtilis” value is “efficiently killed”.
`CCN1C(=Cc2ccc3c4ccccc4ccc3[n+]2CC)C=Cc2ccccc21.Cc1ccc(S(=O)(=O)[O-])cc1` [7N-12]: in test [1], the minimum inhibitory concentration (MIC) stood at 1.25 µM. Besides, in test [5] (0.3 μM), the “amount of growth relative to absence of compound” value was 98% and the growth inhibition was 2%.
For the compound `CCN(CC)CCNc1nc(C=Cc2ccc(Cl)cc2)nc2cc3ccccc3cc12` [16L-09], the IC50 (in general, the concentration that gives 50% inhibition) is 15 µM in [12] and 50 µM in test [13]. The compound also had an MIC in [1] of 10 µM (≈ 4.31 µg/mL). Also, the “reduction in MIC when administered in combination” value in test [5] (in combination with 26E-10 at sub-MIC concentrations) was found to be 4 fold.
Take `Oc1ccc(Cl)cc1Cc1cc(Cl)cc(Cc2cc(Cl)ccc2O)c1O` [27D-12]: the IC50 in [12] came out at 5 µM. In test [13], the midpoint of inhibition, the IC50, lay at 55 µM. In addition, the minimum inhibitory concentration (MIC) in test [1] turned out to be 20 µM (≈ 8.19 µg/mL). In addition, in test [14], the “activity against gram negative bacteria” value is recorded as “kills gram negative species” and the “activity against gram positive bacteria” value was “effective against gram positive bacteria at very low concentrations”.
As for `Nc1c(C=Cc2cc3cc(C4=NCCN4)ccc3o2)[nH]c2cc(C3=NCCN3)ccc12` [58P-18], in test [12], the IC50 stood at 4 µM. The IC50 in test [13] stood at 30 µM. The same compound registered a minimum inhibitory concentration (MIC) in test [1] of 80 µM (≈ 32.8 µg/mL). In test [6] (40 μM), the Z-ring assembly entry is “none of the treated cells appear to contain a medial FtsZ ring” and the “time until cells start elongating” value is listed as no more than 60 min.
